Source: PubChem BioAssay (NCI)
Values joined by “and” are separate entries in the source; they are usually repeats but may differ in a detail not shown here. Identical values can stand only once.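 Cells were grown in 96-well plates and exposed to each compound for 48 hours at five concentrations; endpoints were interpolated linearly between bracketing concentrations, or set to the highest concentration if not reached. At the GI50, growth is halved. At the TGI there is no net growth.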

How the values were obtained:
Experiment in all cases: NCI-60 cell line screen, 48 h
CAKI-1 renal = tested on: CAKI-1 renal
M14 melanoma = tested on: M14 melanoma
NCI-H23 lung = tested on: NCI-H23 lung
RPMI-8226 leukemia = tested on: RPMI-8226 leukemia
SF-268 CNS = tested on: SF-268 CNS
SK-MEL-28 melanoma = tested on: SK-MEL-28 melanoma
SN12C renal = tested on: SN12C renal
SNB-19 CNS = tested on: SNB-19 CNS
SW-620 colon = tested on: SW-620 colon
U251 CNS = tested on: U251 CNS

Structure (SMILES)	GI50 (CAKI-1 renal)	TGI (CAKI-1 renal)	GI50 (M14 melanoma)	TGI (M14 melanoma)	GI50 (NCI-H23 lung)	TGI (NCI-H23 lung)	GI50 (RPMI-8226 leukemia)	TGI (RPMI-8226 leukemia)	GI50 (SF-268 CNS)	TGI (SF-268 CNS)	GI50 (SK-MEL-28 melanoma)	TGI (SK-MEL-28 melanoma)	GI50 (SN12C renal)	TGI (SN12C renal)	GI50 (SNB-19 CNS)	TGI (SNB-19 CNS)	GI50 (SW-620 colon)	TGI (SW-620 colon)	GI50 (U251 CNS)	TGI (U251 CNS)
COc1ccc(-c2cn(-c3ccccc3)c(-c3ccccc3)n2)cc1OC	11.2 µM	27 µM	5.69 µM	20 µM	5.51 µM	25 µM	1.31 µM	3.59 µM	3.35 µM	13.5 µM	12 µM	26.2 µM	5.2 µM	17.8 µM	7.5 µM	21.1 µM	3.69 µM	18.5 µM	2.46 µM	10.6 µM
COc1cc(Nc2nc(N[C@H]3CCCC[C@@H]3N)nc3cc[nH]c(=O)c23)cc(OC)c1	1.84 µM	10.9 µM	0.379 µM	2.16 µM	1.48 µM	15.8 µM	2.18 µM	12.1 µM	2.17 µM	17.7 µM	1.86 µM	6.44 µM	2.43 µM	16.9 µM	3.01 µM	16.7 µM	1.16 µM	2.97 µM	1.46 µM	5.31 µM
CN(C)CCOc1ccc2c(c1)C/C(=C/c1ncc([N+](=O)[O-])n1C)C2=O	–	7.81 µM	–	5.71 µM	–	4.94 µM	–	4.46 µM	–	9.1 µM	–	33.4 µM	–	9.78 µM	–	15.3 µM	–	18.2 µM	–	20.5 µM
Cc1cc(C(C#N)c2ccc(Cl)cc2)c(Cl)cc1NC(=O)c1cc(I)cc(I)c1O (stereo not given)	10.2 µM and 14.3 µM	35.1 µM and 40.9 µM	14.7 µM and 16.3 µM	29.9 µM and 34.2 µM	6.2 µM and 14.6 µM	21 µM and 37.3 µM	3.15 µM and 11.1 µM	13 µM and 43.5 µM	7.58 µM and 13.8 µM	22.2 µM and 31.3 µM	5.42 µM and 14.8 µM	19.7 µM and 30.3 µM	3.57 µM and 15.4 µM	35.6 µM and 39.2 µM	5.97 µM and 10.4 µM	27.1 µM and 27.5 µM	6.91 µM and 16.7 µM	22.6 µM and 34.6 µM	6.1 µM and 16 µM	33.4 µM and 38.2 µM
Cc1cccc(C(C)C)c1NC(=O)C(=O)CC(=O)c1c(C)n([O-])c2ccccc2[n+]1=O	–	> 100 µM	–	95.3 µM	–	51.3 µM	–	72.1 µM	–	> 100 µM	–	> 100 µM	–	96.7 µM	–	> 100 µM	–	> 100 µM	–	95.9 µM
CCc1cc(O)c(Cl)c(C)c1Cl	–	32.7 µM	–	63.6 µM	–	36.9 µM	–	42.3 µM	–	> 100 µM	–	36.6 µM	–	29.5 µM	–	95.6 µM	–	43.6 µM	–	38.1 µM
COC(=O)CNC(=O)[C@@H](OC)[C@@H]1Cc2cc3cc(OC4CC(OC5CC(O)C(O)C(C)O5)C(O)C(C)O4)c(C)c(O)c3c(O)c2C(=O)[C@H]1OC1CC(OC2CC(OC3CC(C)(O)C(O)C(C)O3)C(O)C(C)O2)C(O)C(C)O1 (stereo not given in full)	0.243 µM	3.84 µM	0.239 µM	2.4 µM	0.15 µM	> 50 µM	0.116 µM	1.38 µM	0.196 µM	> 50 µM	0.11 µM	1.03 µM	0.138 µM	> 50 µM	0.154 µM	> 50 µM	0.184 µM	> 50 µM	0.0806 µM	> 50 µM
COc1c(N2CCN(CN3C(=O)C(=Nc4ccc(S(=O)(=O)Nc5ncccn5)cc4)c4ccccc43)C(C)C2)c(F)cc2c(=O)c(C(=O)O)cn(C3CC3)c12 (stereo not given)	48 µM	> 50 µM	> 50 µM	> 50 µM	19.8 µM	> 50 µM	28.7 µM	> 50 µM	44.1 µM	> 50 µM	> 50 µM	> 50 µM	> 50 µM	> 50 µM	6.51 µM	31.3 µM	10.8 µM	39.4 µM	> 50 µM	> 50 µM
CCCCCCCCCCCCCCCCCCCCCC(=O)Nc1ccn(C2OC(CO)C(O)C2O)c(=O)n1 (stereo not given)	–	> 100 µM	–	32.6 µM	–	> 100 µM	–	> 100 µM	–	> 100 µM	–	> 100 µM	–	> 100 µM	–	> 100 µM	–	> 100 µM	–	> 100 µM
COc1cc(-c2cn(-c3ccc(Cl)cc3)c(C)c2C(=O)C(F)(F)F)cc(OC)c1OC	> 100 µM	> 100 µM	> 100 µM	> 100 µM	60.5 µM	> 100 µM	5.3 µM	> 100 µM	> 100 µM	> 100 µM	> 100 µM	> 100 µM	12.7 µM	> 100 µM	> 100 µM	> 100 µM	> 100 µM	> 100 µM	> 100 µM	> 100 µM
S=c1[nH]c2ccc(Br)cc2c(=S)n1-c1ccccc1	–	> 100 µM	–	98.6 µM	–	65.6 µM	–	56.7 µM	–	> 100 µM	–	59.9 µM	–	98.7 µM	–	> 100 µM	–	> 100 µM	–	48.4 µM
CC(C)CC1=[N+]=C(NC#N)N=C(CCC(=O)Nc2ccccc2[N+](=O)[O-])C1	–	> 100 µM	–	> 100 µM	–	> 100 µM	–	> 100 µM	–	> 100 µM	–	> 100 µM	–	> 100 µM	–	> 100 µM	–	> 100 µM	–	> 100 µM
COc1cc[nH]c1/C=C1\C(=O)Nc2ccc(F)c(I)c21	0.557 µM	> 25 µM	> 25 µM	> 25 µM	> 25 µM	> 25 µM	> 25 µM	> 25 µM	> 25 µM	> 25 µM	> 25 µM	> 25 µM	> 25 µM	> 25 µM	> 25 µM	> 25 µM	> 25 µM	> 25 µM	> 25 µM	> 25 µM
COc1ccc2c3c(c(=O)n(C)c2c1OC)C=CC(C)(C)O3	–	38.4 µM	–	> 100 µM	–	84.9 µM	–	29.3 µM	–	> 100 µM	–	> 100 µM	–	54.8 µM	–	> 100 µM	–	> 100 µM	–	> 100 µM
CN(C)C(=S)N=Nc1c(O)[nH]c2ccccc12	0.257 µM	1.26 µM	0.484 µM	9.41 µM	0.656 µM	25 µM	0.418 µM	33.5 µM	0.593 µM	12.6 µM	2.57 µM	22.7 µM	0.578 µM	17.9 µM	0.546 µM	15 µM	0.576 µM	21.6 µM	0.392 µM	27.6 µM
